Results taken from patent US20250188075A1, “SUBSTITUTED HETEROCYCLIC CSNK1 INHIBITORS” (The Broad Institute, Inc., priority 2022, published 2025).

Legend:
[1] = Solubility assay (thermodynamic solubility); type: physicochemical; details: aqueous buffer, 24 h
Protocol: Solubility of solid compound in aqueous buffer was determined by an equilibrium shake flask method. A saturated solution of drug in solvent (˜2 mg/ml solvent) was prepared and the solution was mixed for 24 h to ensure that equilibrium has been reached. The solution was centrifuged to remove the insoluble fraction and the concentration of the compound in solution was determined by HPLC-UV using a standard calibration curve (Kerns, E. H. et al., Solubility Methods in: Drug-like Properties: Concepts, Structure Design and Methods, p 276-286. Burlington, MA: Academic Press 2008).

[2] = biological target: human Ether-a-go-go-Related Gene (hERG) potassium channel (Homo sapiens (Human), UniProt Q12809); assay: hERG inhibition assay, automated voltage clamp; type: cell-based; details: HEK293 cells stably expressing hERG alpha subunit
human Ether-a-go-go-Related Gene (hERG) potassium channel, sequence (Q12809 whole entry): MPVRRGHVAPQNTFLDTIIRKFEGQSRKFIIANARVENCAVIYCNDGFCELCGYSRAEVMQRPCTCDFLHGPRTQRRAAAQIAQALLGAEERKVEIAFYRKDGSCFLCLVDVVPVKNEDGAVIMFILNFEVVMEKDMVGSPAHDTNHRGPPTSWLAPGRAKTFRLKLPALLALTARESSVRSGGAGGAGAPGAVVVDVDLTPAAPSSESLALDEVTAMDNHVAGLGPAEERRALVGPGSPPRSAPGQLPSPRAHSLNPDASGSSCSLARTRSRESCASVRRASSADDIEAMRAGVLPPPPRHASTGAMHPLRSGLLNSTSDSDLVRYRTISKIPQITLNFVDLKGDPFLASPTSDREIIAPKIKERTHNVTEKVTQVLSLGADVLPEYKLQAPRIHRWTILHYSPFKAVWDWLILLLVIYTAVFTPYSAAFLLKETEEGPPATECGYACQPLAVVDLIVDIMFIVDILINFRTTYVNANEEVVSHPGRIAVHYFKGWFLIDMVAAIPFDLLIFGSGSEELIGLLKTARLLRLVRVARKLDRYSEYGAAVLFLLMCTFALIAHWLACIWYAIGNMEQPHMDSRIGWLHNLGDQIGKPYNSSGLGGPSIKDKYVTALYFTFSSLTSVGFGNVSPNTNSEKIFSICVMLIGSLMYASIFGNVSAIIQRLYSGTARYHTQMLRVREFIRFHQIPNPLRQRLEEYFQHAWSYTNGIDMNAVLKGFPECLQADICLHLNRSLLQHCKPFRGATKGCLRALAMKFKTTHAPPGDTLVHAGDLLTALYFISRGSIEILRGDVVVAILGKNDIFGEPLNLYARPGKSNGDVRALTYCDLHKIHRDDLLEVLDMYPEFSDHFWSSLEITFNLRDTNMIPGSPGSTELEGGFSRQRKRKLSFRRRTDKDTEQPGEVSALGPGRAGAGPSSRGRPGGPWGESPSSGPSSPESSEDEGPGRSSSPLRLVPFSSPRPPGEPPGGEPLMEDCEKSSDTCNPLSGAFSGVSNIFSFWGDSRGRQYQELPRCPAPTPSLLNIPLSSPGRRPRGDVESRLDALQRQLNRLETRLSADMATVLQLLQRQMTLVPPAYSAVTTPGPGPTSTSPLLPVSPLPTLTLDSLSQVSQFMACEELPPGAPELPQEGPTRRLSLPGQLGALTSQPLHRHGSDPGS
Protocol: Following harvest, cells were transferred to the cell reservoir of a 384 channel automated patch clamp device and stored there at 20° C. until usage.
Upon start of the automated voltage clamp procedure, hERG cells were transferred to a 384 well patch clamp chip (pipette resistance of ˜[…] (2) prefilled with external solution (containing in mM: 143 NaCl, 4 KCl, 2 CaCl2), 1 MgCl2, 5 glucose, 10 HEPES; pH 7.4 (NaOH)). Underpressure was applied underneath the glass bottom of the patch clamp chip to position the hERG cells on the recording sites in the glass bottom of the chip. Following successful cell catch, underpressure was stopped and a seal enhancing solution (containing in mM: 78 NaCl, 60 NMDG, 4 KCl, 10 CaCl2), 1 MgCl2, 5 glucose, 10 HEPES; pH 7.4 (HCl)) was added to the hERG cells to facilitate the formation of stable seals between the membranes of the hERG cells and the glass next to the recording sites. Then, hERG cells were washed several times with wash solution (containing in mM: 87 NaCl, 60 NMDG, 4 KCl, 2 CaCl2), 1 MgCl2, 5 glucose, 10 HEPES; pH 7.4 (HCl)) to remove excess seal enhancing solution. In the meantime, the membrane parts of the hERG cells covering the recording sites were exposed to internal solution (containing in mM: 10 NaCl, 123 KF, 10 EGTA, 10 HEPES; pH 7.2 (KOH)) supplemented with 5-20 μM Escin, and the perforated patch configuration was established. Next, the holding potential was stepwise adjusted to −80 mV, capacitance was compensated, and a series of defined voltage commands was initiated to trigger the hERG current response from the hERG cells (−80 mV for 200 ms, +20 mV for 1000 ms, −40 mV for 500 ms; repeated at a frequency of 0.1 Hz). To determine whether the test item inhibits hERG, different solutions were sequentially applied to the hERG cells: First, a negative control (i.e. wash solution supplemented with 0.3% DMSO and 0.01% HSA) was applied for at least 3 min to investigate the basic electrophysiological properties of the hERG cells as well as define their standard current response. Next, a solution containing the test item at a final concentration of (0.1, 1, or 10) μM was applied for 10 min to measure eventual inhibitory effects of the test item on the hERG current (—the test item solution was produced from a 10 mM DMSO stock by using an automated pipetting device and sequential dilution). Finally, a positive control (i.e. wash solution supplemented with 0.3% DMSO, 0.01% HSA, and 10 μM quinidine) was added to the cells for ˜3 min to block the hERG current and, thereby, define the maximum inhibition. For data analysis, experimental results were processed using the automated patch clamp device-specific software as well as a custom-made software, and TIBCO Spotfire. For each successful recording, hERG tail current amplitudes were averaged from three consecutive current responses at the end of the negative control phase, test item phase, and positive control phase, respectively. Resulting mean hERG tail current amplitudes were normalized to the mean hERG tail current amplitude at the end of the negative control phase with nominal 0% inhibition as well as the hERG tail current amplitude at the end of the positive control phase with nominal 100% inhibition. Then, the effect of the test item was calculated as a percentage inhibition value at the test item concentration applied. Finally, percentage inhibition values from all successful recordings at a particular test item concentration were averaged and combined to construct a standard sigmoidal dose response curve, determine the half maximal inhibitory concentration (IC50) of the test item as well as extrapolate its IC20.

Thermodynamic Solubility [mg/l] (mean) [1]: 2.35 mg/L
SMILES: O=C(Cc1ccc(F)cc1)Nc1cc(-c2[nH]c3ccc(F)nc3c2-c2ccccn2)ccn1 [Example C4, reference compound]
IC50 [2]: 1.16 µM
